The text below walks through data of paper PMC10094450, “Investigation of the Entry Pathway and Molecular Nature of σ1 Receptor Ligands” (International Journal of Molecular Sciences, 2023).

Where two headings read alike, the source gives them in different places.

Test [1] concerns the target T1, Hsσ1-R (Homo sapiens, UniProt Q99720). Description: Fluorescence titration (intrinsic tryptophan fluorescence quenching) of purified Hsσ1-R.
From the text: Since the intrinsic fluorescence of tryptophan residues within a given protein depends on the tryptophan’s environment, when a molecule binds near tryptophan residues it can lead to fluorescence intensity quenching (Figure 6). Thanks to the fact that two of the tryptophan residues (i.e., Trp89 and Trp164) are part of the previously identified Hsσ1-R binding site (Supplementary Figure S11), we were able to perform fluorescence titration to measure the affinity of selected molecules for this receptor.
Binding of ligands to Hsσ1-R was followed by measuring the intrinsic protein fluorescence on a Fluoromax-4 spectrofluorometer (Horiba-Jobin Yvon). Fluorescence spectra were collected at 25 °C using a 1 cm path length cuvette, under continuous stirring. The excitation wavelength was 280 nm, and emission was recorded between 300 and 450 nm. The protein was used at 100 nM concentration in a buffer containing 0.01% LMNG, 0.001% CHS, 100 mM NaCl and 20 mM HEPES pH 7.5. The ligands were added to the protein solution, starting from a 10 mM stock solution in 100% DMSO, at a final concentration within the range 0.01 to 100 μM. The measurements were performed after each addition, following 3 min of incubation.
This equation describes a two-site model in which the binding sites are independent of each other, and at each site the interaction is non-cooperative [71]:(2) ΔF=ΔFmax1×Ltot/KD1+Ltot+ΔFmax2×Ltot/KD2+Ltot where: ΔF is the fluorescence quenching due to ligand binding; ΔFmax is the maximum fluorescence quenching possible in the experiment; [L]tot is the total concentration of the ligand; and KD1 and KD2 are the dissociation constants for the two sites.
The target of test [2] is T1, Hsσ1-R. The arrangement: FLAG; made in house; host or cells: Sf9 insect cells (baculovirus, pFastbac1); method as in PMID 33525510. The note with it: purified σ1R immobilized on a matrix; read-out: KD by SPR; cited from earlier work.
[3] abbreviates: read-out: KD2, low-affinity site, two-site model, 25 °C.

T1 sequence (Q99720 whole entry): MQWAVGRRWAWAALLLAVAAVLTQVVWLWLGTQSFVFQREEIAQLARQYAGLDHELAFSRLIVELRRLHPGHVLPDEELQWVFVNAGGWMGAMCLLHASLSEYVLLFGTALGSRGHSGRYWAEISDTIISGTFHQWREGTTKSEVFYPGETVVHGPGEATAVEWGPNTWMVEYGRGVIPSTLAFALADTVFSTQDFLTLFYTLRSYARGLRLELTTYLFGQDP

Turning to `CC(=O)C1=CC[C@H]2[C@@H]3CCC4=CC(=O)CC[C@]4(C)[C@H]3CC[C@]12C` [16,17-didehydroprogesterone], the Kd at Hsσ1-R [1] (read-out: KD1, high-affinity site, two-site model, 25 °C) was found to be 0.01 ± 0.004 µM; at Hsσ1-R [1] (setting [3]) it was 15.8 ± 4.03 µM. For the same molecule, the “KD for the high affinity site, fold better than that of pridopidine” value at Hsσ1-R [1] (versus pridopidine, same assay) is 25 fold.

For `COc1cc(C(C)=O)ccc1OCCCN1CCC(c2noc3cc(F)ccc23)CC1` [Iloperidone], the values for the Kd on Hsσ1-R [1], at Hsσ1-R [1] (setting [3]) and at Hsσ1-R [2] were 0.019 ± 0.015 µM, 33.1 ± 14.4 µM and 5 µM, respectively.
